Values quoted from earlier work as cited in US12441685B2, “Compounds and methods for treating cancer” (DANA-FARBER CANCER INSTITUTE, INC., priority 2015, dated 2025).

Settings: Phase II study, patients with NBCCS (Tang et al., 2012)

## CS(=O)(=O)c1ccc(C(=O)Nc2ccc(Cl)c(-c3ccccn3)c2)c(Cl)c1 [vismodegib]
  participants who ceased treatment due to serious adverse effects: 14 of 26
